Results published in ChEMBL document CHEMBL1133078, “Isoxazolines and isoxazoles as factor Xa inhibitors” (Bioorg Med Chem Lett, 2000).

Key:
Serine protease 1 = target: T1, Serine protease 1 (Bos taurus, UniProt P00760); test: Inhibitory activity against trypsin
T1 sequence (P00760 whole entry): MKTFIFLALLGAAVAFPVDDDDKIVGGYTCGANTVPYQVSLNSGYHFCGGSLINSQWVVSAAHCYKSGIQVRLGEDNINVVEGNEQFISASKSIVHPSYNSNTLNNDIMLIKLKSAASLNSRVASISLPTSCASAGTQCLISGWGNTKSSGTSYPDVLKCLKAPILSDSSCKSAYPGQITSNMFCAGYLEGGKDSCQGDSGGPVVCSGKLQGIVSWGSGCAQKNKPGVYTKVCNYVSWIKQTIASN

Coagulation factor X [1] = target: Coagulation factor X (Homo sapiens, UniProt P00742); test: Inhibition of human Coagulation factor X
Sequence of Coagulation factor X (Homo sapiens, UniProt P00742) (P00742 41-179 limits assumed): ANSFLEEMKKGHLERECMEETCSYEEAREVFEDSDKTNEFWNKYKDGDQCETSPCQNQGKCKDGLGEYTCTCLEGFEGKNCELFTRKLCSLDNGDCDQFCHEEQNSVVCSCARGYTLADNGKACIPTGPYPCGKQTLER
Sequence of Coagulation factor X (Homo sapiens, UniProt P00742) (P00742 235-488 limits assumed): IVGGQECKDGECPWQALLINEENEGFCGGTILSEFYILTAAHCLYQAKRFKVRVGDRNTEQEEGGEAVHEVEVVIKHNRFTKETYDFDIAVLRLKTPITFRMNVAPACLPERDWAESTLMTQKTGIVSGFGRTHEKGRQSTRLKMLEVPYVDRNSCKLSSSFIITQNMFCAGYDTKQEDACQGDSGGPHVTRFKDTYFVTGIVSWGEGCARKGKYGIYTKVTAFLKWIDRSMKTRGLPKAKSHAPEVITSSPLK

Prothrombin = Prothrombin (Homo sapiens, UniProt P00734); test: Inhibitory activity against thrombin
Oryctolagus cuniculus = species on record: Oryctolagus cuniculus; test: Concentration required to diminish the clot size by 50% in rabbit A-V shunt model of thrombosis; assay type: functional
[2] = Half-life after intravenous administration of 1 mg/kg/h in dog; assay type: ADME, organism-based, Canis lupus familiaris; design: route intravenous; conditions: in vivo
Coagulation factor X [3] = target: T2, Coagulation factor X (Oryctolagus cuniculus, UniProt O19045); test: Inhibitory activity against rabbit Coagulation factor X
T2 sequence (O19045 whole entry): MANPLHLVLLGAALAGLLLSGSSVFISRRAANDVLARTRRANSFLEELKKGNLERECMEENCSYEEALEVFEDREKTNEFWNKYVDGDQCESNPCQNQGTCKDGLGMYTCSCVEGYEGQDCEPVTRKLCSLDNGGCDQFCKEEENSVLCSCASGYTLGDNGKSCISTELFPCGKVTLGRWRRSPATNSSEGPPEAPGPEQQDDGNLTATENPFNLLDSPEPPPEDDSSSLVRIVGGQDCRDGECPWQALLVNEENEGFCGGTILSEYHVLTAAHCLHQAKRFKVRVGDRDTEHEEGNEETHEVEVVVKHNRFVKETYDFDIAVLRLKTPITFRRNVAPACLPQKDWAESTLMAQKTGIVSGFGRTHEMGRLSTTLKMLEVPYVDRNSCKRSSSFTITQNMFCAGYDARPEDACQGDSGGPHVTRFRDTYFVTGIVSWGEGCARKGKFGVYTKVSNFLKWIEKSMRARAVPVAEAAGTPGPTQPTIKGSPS

[4] = Clearance value of compound was determined after intravenous administration of 1 mg/kg/h in dog; assay type: ADME, organism-based, Canis lupus familiaris; design: route intravenous; conditions: in vivo
[5] = Volume of distribution after intravenous administration of 1 mg/kg/h in dog; conditions: in vivo
Canis familiaris = test: Volume of distribution after intravenous administration of 1 mg/kg/h in dog; assay type: ADME, organism-based, Canis lupus familiaris; design: route intravenous; conditions: in vivo

Compound | Ki (Serine protease 1) [nM] | Ki (Coagulation factor X [1]) [nM] | Ki (Prothrombin) [nM] | half-life [2] [h] | Ki (Coagulation factor X [3]) [nM] | clearance [4] [mL/min/kg] | Vdss [5] [L/kg] | Vdss (Canis familiaris) [L/kg] | ID50 (Oryctolagus cuniculus) [µM/h/kg]
CS(=O)(=O)c1ccccc1-c1ccc(NC(=O)c2conc2-c2cccc(C(=N)N)c2)cc1 | 25 | 0.1 | 540 |  |  |  |  |  | 
COC[C@H]1ON=C(c2cccc(C(=N)N)c2)[C@@H]1C(=O)Nc1ccc(-c2ccccc2S(N)(=O)=O)cc1 | 190 |  | 4600 | 1.2 | 0.64 | 16.5 | 0.38 |  | 0.21
COCc1onc(-c2cccc(C(=N)N)c2)c1C(=O)Nc1ccc(-c2ccccc2S(N)(=O)=O)cn1 | 200 |  | 12000 |  |  |  |  |  | 
COCC1(C(=O)Nc2ccc(-c3ccccc3S(N)(=O)=O)cc2)CC(c2cccc(C(=N)N)c2)=NO1 (stereo not drawn) | 70 |  |  |  | 0.8 |  |  |  | 0.26
N=C(N)c1cccc(C2=NO[C@H](Cn3cnnn3)[C@H]2C(=O)Nc2ccc(-c3ccccc3S(N)(=O)=O)cc2)c1 | 180 | 2.3 | 5700 | 1 |  | 8.17 |  | 0.24 | 
CC1(C(=O)Nc2ccc(-c3ccccc3S(N)(=O)=O)cc2)CC(c2cccc(C(=N)N)c2)=NO1 (stereo not drawn) | 120 |  |  |  |  |  |  |  | 
C[C@H]1ON=C(c2cccc(C(=N)N)c2)[C@@H]1C(=O)Nc1ccc(-c2ccccc2S(N)(=O)=O)cc1 | 110 | 1.8 | 4500 |  |  |  |  |  | 
N=C(N)c1cccc(C2=NOC(Cn3cnnn3)(C(=O)Nc3ccc(-c4ccccc4S(N)(=O)=O)cc3)C2)c1 (stereo not drawn) | 91 |  |  |  |  |  |  |  | 

Further lines, with some results ahead:

Ki (Serine protease 1) [nM] | Ki (Coagulation factor X [1]) [nM] | Ki (Prothrombin) [nM] | half-life [2] [h] | Ki (Coagulation factor X [3]) [nM] | clearance [4] [mL/min/kg] | Vdss [5] [L/kg] | Vdss (Canis familiaris) [L/kg] | Compound | ID50 (Oryctolagus cuniculus) [µM/h/kg]
400 | 9.5 | 11000 |  |  |  |  |  | N=C(N)c1cccc(-c2noc(C(F)(F)F)c2C(=O)Nc2ccc(-c3ccccc3S(N)(=O)=O)cc2)c1 | 
117 | 3.4 | 4000 |  |  |  |  |  | N=C(N)c1cccc(-c2noc(N)c2C(=O)Nc2ccc(-c3ccccc3S(N)(=O)=O)cc2)c1 | 
76 | 0.63 | 3800 | 1.2 |  | 28.3 |  | 0.85 | COCc1onc(-c2cccc(C(=N)N)c2)c1C(=O)Nc1ccc(-c2ccccc2S(N)(=O)=O)cc1 | 
50 | 0.5 | 1900 |  |  |  |  |  | N=C(N)c1cccc(-c2noc(CO)c2C(=O)Nc2ccc(-c3ccccc3S(N)(=O)=O)cc2)c1 | 
21 |  | 2000 | 4.3 | 0.4 | 25 |  | 1.7 | N=C(N)c1cccc(-c2nocc2C(=O)Nc2ccc(-c3ccccc3S(N)(=O)=O)cc2)c1 | 0.31
